Assay results taken from US20260027116A1, “Methods of Treating Chronic Graft-Versus-Host Disease Following Allogeneic Hematopoietic Stem Cell Transplantation” (Kadmon Corporation, LLC, priority 2022, published 2026).

What was measured:
lung function = assay: Example 1: percent predicted TLC change from baseline; type: in vivo, human; details: mean (SD)
Method: Change From Baseline in Percent Predicted Total Lung Capacity (TLC) at Each Specified Time Points. TLC is the volume of air in the lungs upon the maximum effort of inspiration. Baseline value was defined as valid and last non-missing value obtained within 28 days prior to participant receiving first study medication. EOT visit was performed within 3 days after the participant's last dose of study drug. […] Analysis was performed on mITT population. Here, ‘number analyzed’=participants with available data for each specified category. Here, ‘0’ in the number analyzed field signifies that none of the participants were available for the analysis at the specified time points.

[1] = clinical drug interaction studies, effects of other drugs on belumosudil; type: in vivo, human; details: healthy subjects

CC(C)NC(=O)COc1cccc(-c2nc(Nc3ccc4[nH]ncc4c3)c3ccccc3n2)c1 [Belumosudil, 2-{3-[4-(1H-indazol-5-ylamino)-2-quinazolinyl]phenoxy}-N-(propan-2-yl) acetamide]
Change From Baseline in Percent Predicted Total Lung Capacity (TLC) (lung function; Cohort 2: 200 mg BID, Cycle 3, Day 1): 1.9 (8.5) Percent Predicted TLC | Change From Baseline in Percent Predicted Total Lung Capacity (TLC) (lung function; Cohort 2: 200 mg BID, Cycle 5, Day 1): −7.2 (10.5) Percent Predicted TLC | Change From Baseline in Percent Predicted Total Lung Capacity (TLC) (lung function; Cohort 2: 200 mg BID, Cycle 7, Day 1): −4.4 (6.3) Percent Predicted TLC | Change From Baseline in Percent Predicted Total Lung Capacity (TLC) (lung function; Cohort 2: 200 mg BID, Cycle 8, Day 1): −5.0 (—) Percent Predicted TLC | Change From Baseline in Percent Predicted Total Lung Capacity (TLC) (lung function; Cohort 2: 200 mg BID, Cycle 9, Day 1): −6.0 (8.5) Percent Predicted TLC | Change From Baseline in Percent Predicted Total Lung Capacity (TLC) (lung function; Cohort 2: 200 mg BID, Cycle 10, Day 1): −18.5 (6.4) Percent Predicted TLC | Change From Baseline in Percent Predicted Total Lung Capacity (TLC) (lung function; Cohort 2: 200 mg BID, Cycle 11, Day 1): −5.2 (11.2) Percent Predicted TLC | Change From Baseline in Percent Predicted Total Lung Capacity (TLC) (lung function; Cohort 2: 200 mg BID, Cycle 12, Day 1): 0.0 (—) Percent Predicted TLC | Change From Baseline in Percent Predicted Total Lung Capacity (TLC) (lung function; Cohort 2: 200 mg BID, Cycle 13, Day 1): −10.3 (18.7) Percent Predicted TLC | Change From Baseline in Percent Predicted Total Lung Capacity (TLC) (lung function; Cohort 2: 200 mg BID, Cycle 14, Day 1): −7.0 (—) Percent Predicted TLC | Change From Baseline in Percent Predicted Total Lung Capacity (TLC) (lung function; Cohort 2: 200 mg BID, Cycle 15, Day 1): −1.0 (5.6) Percent Predicted TLC | Change From Baseline in Percent Predicted Total Lung Capacity (TLC) (lung function; Cohort 2: 200 mg BID, Cycle 16, Day 1): −14.0 (12.7) Percent Predicted TLC | Change From Baseline in Percent Predicted Total Lung Capacity (TLC) (lung function; Cohort 2: 200 mg BID, Cycle 17, Day 1): −17.0 (11.4) Percent Predicted TLC | Change From Baseline in Percent Predicted Total Lung Capacity (TLC) (lung function; Cohort 2: 200 mg BID, Cycle 18, Day 1): −16.0 (8.5) Percent Predicted TLC | Change From Baseline in Percent Predicted Total Lung Capacity (TLC) (lung function; Cohort 2: 200 mg BID, Cycle 19, Day 1): −7.7 (10.5) Percent Predicted TLC | Change From Baseline in Percent Predicted Total Lung Capacity (TLC) (lung function; Cohort 2: 200 mg BID, Cycle 20, Day 1): −9.5 (16.3) Percent Predicted TLC | Change From Baseline in Percent Predicted Total Lung Capacity (TLC) (lung function; Cohort 2: 200 mg BID, Cycle 21, Day 1): −18.0 (—) Percent Predicted TLC | Change From Baseline in Percent Predicted Total Lung Capacity (TLC) (lung function; Cohort 2: 200 mg BID, Cycle 22, Day 1): −18.5 (6.4) Percent Predicted TLC | Change From Baseline in Percent Predicted Total Lung Capacity (TLC) (lung function; Cohort 2: 200 mg BID, Cycle 23, Day 1): −21.0 (19.8) Percent Predicted TLC | Change From Baseline in Percent Predicted Total Lung Capacity (TLC) (lung function; Cohort 2: 200 mg BID, Cycle 24, Day 1): −15.0 (—) Percent Predicted TLC | Change From Baseline in Percent Predicted Total Lung Capacity (TLC) (lung function; Cohort 2: 200 mg BID, Cycle 25, Day 1): −19.5 (13.4) Percent Predicted TLC | Change From Baseline in Percent Predicted Total Lung Capacity (TLC) (lung function; Cohort 2: 200 mg BID, Cycle 27, Day 1): −24.0 (12.7) Percent Predicted TLC | Change From Baseline in Percent Predicted Total Lung Capacity (TLC) (lung function; Cohort 2: 200 mg BID, Cycle 29, Day 1): −27.5 (21.9) Percent Predicted TLC | Change From Baseline in Percent Predicted Total Lung Capacity (TLC) (lung function; Cohort 2: 200 mg BID, Cycle 31, Day 1): −36.0 (—) Percent Predicted TLC | Change From Baseline in Percent Predicted Total Lung Capacity (TLC) (lung function; Cohort 2: 200 mg BID, Cycle 33, Day 1): −39.0 (—) Percent Predicted TLC | Change From Baseline in Percent Predicted Total Lung Capacity (TLC) (lung function; Cohort 2: 200 mg BID, Cycle 35, Day 1): −23.5 (16.3) Percent Predicted TLC | Change From Baseline in Percent Predicted Total Lung Capacity (TLC) (lung function; Cohort 2: 200 mg BID, EOT): −2.4 (15.0) Percent Predicted TLC | Change From Baseline in Percent Predicted Total Lung Capacity (TLC) (lung function; Cohort 3: 400 mg QD, Cycle 2, Day 1): −9.0 (13.4) Percent Predicted TLC | Change From Baseline in Percent Predicted Total Lung Capacity (TLC) (lung function; Cohort 3: 400 mg QD, Cycle 3, Day 1): −0.6 (14.8) Percent Predicted TLC | Change From Baseline in Percent Predicted Total Lung Capacity (TLC) (lung function; Cohort 3: 400 mg QD, Cycle 4, Day 1): 3.3 (14.0) Percent Predicted TLC | Change From Baseline in Percent Predicted Total Lung Capacity (TLC) (lung function; Cohort 3: 400 mg QD, Cycle 5, Day 1): −1.7 (11.2) Percent Predicted TLC | Change From Baseline in Percent Predicted Total Lung Capacity (TLC) (lung function; Cohort 3: 400 mg QD, Cycle 6, Day 1): −4.4 (11.6) Percent Predicted TLC | Change From Baseline in Percent Predicted Total Lung Capacity (TLC) (lung function; Cohort 3: 400 mg QD, Cycle 7, Day 1): −2.6 (13.4) Percent Predicted TLC | Change From Baseline in Percent Predicted Total Lung Capacity (TLC) (lung function; Cohort 3: 400 mg QD, Cycle 8, Day 1): −0.2 (12.9) Percent Predicted TLC | Change From Baseline in Percent Predicted Total Lung Capacity (TLC) (lung function; Cohort 3: 400 mg QD, Cycle 9, Day 1): −0.9 (15.8) Percent Predicted TLC | Change From Baseline in Percent Predicted Total Lung Capacity (TLC) (lung function; Cohort 3: 400 mg QD, Cycle 10, Day 1): 3.6 (14.7) Percent Predicted TLC | Change From Baseline in Percent Predicted Total Lung Capacity (TLC) (lung function; Cohort 3: 400 mg QD, Cycle 11, Day 1): −3.0 (19.7) Percent Predicted TLC | Change From Baseline in Percent Predicted Total Lung Capacity (TLC) (lung function; Cohort 3: 400 mg QD, Cycle 12, Day 1): −8.0 (14.2) Percent Predicted TLC | Change From Baseline in Percent Predicted Total Lung Capacity (TLC) (lung function; Cohort 3: 400 mg QD, Cycle 13, Day 1): −3.3 (17.6) Percent Predicted TLC | Change From Baseline in Percent Predicted Total Lung Capacity (TLC) (lung function; Cohort 3: 400 mg QD, Cycle 14, Day 1): −5.8 (16.5) Percent Predicted TLC | Change From Baseline in Percent Predicted Total Lung Capacity (TLC) (lung function; Cohort 3: 400 mg QD, Cycle 15, Day 1): −7.0 (12.0) Percent Predicted TLC | Change From Baseline in Percent Predicted Total Lung Capacity (TLC) (lung function; Cohort 3: 400 mg QD, Cycle 16, Day 1): −15.5 (9.5) Percent Predicted TLC | Change From Baseline in Percent Predicted Total Lung Capacity (TLC) (lung function; Cohort 3: 400 mg QD, Cycle 17, Day 1): −18.1 (15.6) Percent Predicted TLC | Change From Baseline in Percent Predicted Total Lung Capacity (TLC) (lung function; Cohort 3: 400 mg QD, Cycle 18, Day 1): 0.0 (13.9) Percent Predicted TLC | Change From Baseline in Percent Predicted Total Lung Capacity (TLC) (lung function; Cohort 3: 400 mg QD, Cycle 19, Day 1): −7.0 (5.4) Percent Predicted TLC | Change From Baseline in Percent Predicted Total Lung Capacity (TLC) (lung function; Cohort 3: 400 mg QD, Cycle 20, Day 1): −9.3 (15.4) Percent Predicted TLC | Change From Baseline in Percent Predicted Total Lung Capacity (TLC) (lung function; Cohort 3: 400 mg QD, Cycle 21, Day 1): −14.4 (24.0) Percent Predicted TLC | Change From Baseline in Percent Predicted Total Lung Capacity (TLC) (lung function; Cohort 3: 400 mg QD, Cycle 22, Day 1): −21.0 (14.1) Percent Predicted TLC | Change From Baseline in Percent Predicted Total Lung Capacity (TLC) (lung function; Cohort 3: 400 mg QD, Cycle 23, Day 1): −2.8 (18.8) Percent Predicted TLC | Change From Baseline in Percent Predicted Total Lung Capacity (TLC) (lung function; Cohort 3: 400 mg QD, Cycle 24, Day 1): −34.0 (—) Percent Predicted TLC | Change From Baseline in Percent Predicted Total Lung Capacity (TLC) (lung function; Cohort 3: 400 mg QD, Cycle 25, Day 1): −6.3 (24.1) Percent Predicted TLC | Change From Baseline in Percent Predicted Total Lung Capacity (TLC) (lung function; Cohort 3: 400 mg QD, Cycle 27, Day 1): −14.5 (24.7) Percent Predicted TLC | Change From Baseline in Percent Predicted Total Lung Capacity (TLC) (lung function; Cohort 3: 400 mg QD, Cycle 29, Day 1): 12.0 (14.1) Percent Predicted TLC | Change From Baseline in Percent Predicted Total Lung Capacity (TLC) (lung function; Cohort 3: 400 mg QD, Cycle 31, Day 1): 17.0 (—) Percent Predicted TLC | Change From Baseline in Percent Predicted Total Lung Capacity (TLC) (lung function; Cohort 3: 400 mg QD, Cycle 35, Day 1): 13.0 (—) Percent Predicted TLC | Change From Baseline in Percent Predicted Total Lung Capacity (TLC) (lung function; Cohort 3: 400 mg QD, Cycle 36, Day 1): −6.0 (—) Percent Predicted TLC | Change From Baseline in Percent Predicted Total Lung Capacity (TLC) (lung function; Cohort 3: 400 mg QD, Cycle 49, Day 1): 1.0 (—) Percent Predicted TLC | Change From Baseline in Percent Predicted Total Lung Capacity (TLC) (lung function; Cohort 3: 400 mg QD, EOT): −12.6 (20.1) Percent Predicted TLC | decrease of belumosudil AUC with omeprazole [1]: 47% | decrease of belumosudil AUC with rabeprazole [1]: 80% | decrease of belumosudil AUC with rifampin [1]: 72% | decrease of belumosudil Cmax with omeprazole [1]: 68% | decrease of belumosudil Cmax with rabeprazole [1]: 87% | decrease of belumosudil Cmax with rifampin [1]: 59% | effect of itraconazole on belumosudil exposure [1]: no clinically meaningful effect
